{"source": "patent US12139458B2", "about": "“(2,5-dioxopyrrolidin-1-yl)(phenyl)-acetamide derivatives and their use in the treatment of neurological diseases” (UNIWERSYTET JAGIELLONSKI, priority 2019, dated 2024)", "key": {"[1]": {"test_system": "male white Swiss mice (CD-1)", "assay": "Formalin test (analgesic activity)", "format": "in vivo", "details": "Mus musculus, ip, i.p., mice", "procedure": "(§1) The tests were carried out using male white Swiss mice (CD-1) weighing 18-25 g. All procedures were carried out in accordance with Polish and international guidelines on ethics of animal testing, after obtaining appropriate institutional approval. The study group consisted of 8-10 animals. The tested and reference substances were administered intraperitoneally 30 minutes before given test as suspension in 1% aqueous solution of Tween. All tests/models were carried out based on the procedures described in the specialist literature: the formalin test (Beirith, A.; Santos, A. R.; Calixto, J. B.; Rodrigues, A. L.; Creczynski-Pasa, T. B. Eur. J. Pharmacol. 1998, 345, 233-245), the model of capsaicin-induced pain (Mogilski, S.; Kubacka, M.; Redzicka, A.; Kazek, G.; Dudek, M.; Malinka, W.; Filipek, B. Pharmacol. Biochem. Behav. 2015, 133, 99-110), the model of oxaliplatin-induced neuropathic pain—von Frey test (Sałat, K.; Cios, A.; Wyska, E.; Satat, R.; Mogilski, S.; Filipek, B.; Wigȩkowski, K.; Malawska, B. Pharmacol. Biochem. Behav. 2014, 122, 173-181).\nThe pain was induced by the subplantar injection of 20 μL of 2.5% formalin solution into the mice right hind paw. The animals were placed in separate, transparent observation chambers for a period of 30 minutes. The measured value was the total licking and biting time of the paw to which the formalin solution was injected. The nociceptive reaction time was calculated for the first 5 minutes after formalin injection (first phase of the test—acute pain) and in the 15-20, 20-25 and 25-30 minutes time intervals after its administration (second phase of the test—inflammatory pain). The observed inhibition of nociceptive reaction—reduction of paw licking and biting time, was interpreted as the analgesic effect of the compound tested. Based on the results obtained, the ED50 dose was calculated (dose that reduces the nociceptive reaction time by 50%). […] Compound 6 was administered at doses of 10 mg/kg, 20 mg/kg and 30 mg/kg."}, "[2]": {"test_system": "male white Swiss mice (CD-1)", "assay": "Oxaliplatin-induced neuropathic pain, von Frey test", "format": "in vivo", "details": "for pain threshold, von Frey test: 7 days after OXPT, after OXPT 1.89±0.04 g; for pain threshold as % of the initial value, von Frey test: initial value 3.36±0.10 g", "procedure": "as §1\n(§2) Oxaliplatin (OXPT) was dissolved in a 5% glucose solution, followed by intraperitoneal administration to mice. A single dose of 10 mg/kg was used. Tactile and thermal (sensation of low temperature) allodynia associated with oxaliplatin-induced neuropathy are characterized by two phases. The early phase is acute and develops soon after administration of the OXPT, while the symptoms of the later (chronic) phase (associated with neurons damage), develops after a few days. Behavioral tests in mice with OXPT-induced neuropathy were carried out 7 days after its administration, i.e. in the late phase of neuropathy.\nThe influence of compounds tested on tactile allodynia was determined in the von Frey test. The animals were placed individually in cages with a reticulated bottom, 60 minutes before the beginning of the experiment, in order to adapt to the new environment. An electronic Von Frey apparatus (Electronic Von Frey, Bioseb, France) was used to assess the pain threshold for mechanical stimuli. The von Frey's fiber was applied to the underside of the right mouse paw with increasing pressure. […] The measurement was performed 3 times for each mouse, with at least 30 seconds between the measurements, then the results obtained were averaged. The entire study was performed 3 times: before OXPT administration to determine the baseline pain threshold; 7 days after administration of OXPT, and before administration of test compounds, to assess developing neuropathy by setting a new pain threshold; 30 minutes after administration of the compounds to determine their influence developed neuropathy.\n(§3) Compound 6 was administered at doses of 10, 20 and 30 mg/kg."}, "[3]": {"test_system": "male white Swiss mice (CD-1)", "assay": "Oxaliplatin-induced neuropathy, Cold Plate test", "format": "in vivo", "details": "OXPT-induced neuropathy, plate 2° C.", "procedure": "as §2\nThe effect of the test compound on thermal allodynia was evaluated in a Cold Plate test using specialized equipment—Cold/Hot Plate; Bioseb, France. The animals were placed individually on a metal plate cooled to 2° C. using the thermostated device. The observed nociceptive reactions of animals included licking and/or characteristic hind paw lift or bounce. The observation time was set at 60 s to eliminate the potential risk of tissue damage and minimize animal discomfort. Similar to the Von Frey test, the measurement was performed 3 times.\nas §3"}, "[4]": {"test_system": "Na+ channel (site 2)", "assay": "Na+ channel (site 2) affinity study", "format": "binding", "details": "rat cerebral cortex", "from_the_text": "(§4) A unique feature of the compound 6 representing compounds of formula (II) according to the invention is the inhibition of calcium currents by blocking the transient receptor potential vanilloid type 1 (TRPV1). This effect has not been disclosed for known AEDs. TRPV1 receptor antagonism may determine the antinociceptive effect of the compounds disclosed herein. The role of the TRPV1 receptor in conduction of pain stimuli has been well documented in specialist literature (Szallasi, A.; Cortright, D. N.; Blum, C. A.; Eid, S. R. Nat. Rev. Drug. Discov. 2007, 6, 357-372). The compounds according to the invention are characterized by a complex mechanism of action, which is not described for known anticonvulsants. It should be emphasized, however, that further in vitro studies may reveal further molecular targets responsible for the pharmacological action of substances being the subject of current patent claim. The results of binding studies (sodium channel, calcium channel) and functional tests (TRPV1 receptor) for compound 6 are shown in Table 3."}, "[5]": {"test_system": "Ca2+ channel type L (dihydropyridine binding site)", "assay": "Ca2+ channel type L (dihydropyridine binding site) affinity study", "details": "rat cerebral cortex", "from_the_text": "as §4"}, "[6]": {"biological_target": "Potassium channel (hERG) (Homo sapiens, UniProt Q12809)", "sequence (Q12809 whole entry)": "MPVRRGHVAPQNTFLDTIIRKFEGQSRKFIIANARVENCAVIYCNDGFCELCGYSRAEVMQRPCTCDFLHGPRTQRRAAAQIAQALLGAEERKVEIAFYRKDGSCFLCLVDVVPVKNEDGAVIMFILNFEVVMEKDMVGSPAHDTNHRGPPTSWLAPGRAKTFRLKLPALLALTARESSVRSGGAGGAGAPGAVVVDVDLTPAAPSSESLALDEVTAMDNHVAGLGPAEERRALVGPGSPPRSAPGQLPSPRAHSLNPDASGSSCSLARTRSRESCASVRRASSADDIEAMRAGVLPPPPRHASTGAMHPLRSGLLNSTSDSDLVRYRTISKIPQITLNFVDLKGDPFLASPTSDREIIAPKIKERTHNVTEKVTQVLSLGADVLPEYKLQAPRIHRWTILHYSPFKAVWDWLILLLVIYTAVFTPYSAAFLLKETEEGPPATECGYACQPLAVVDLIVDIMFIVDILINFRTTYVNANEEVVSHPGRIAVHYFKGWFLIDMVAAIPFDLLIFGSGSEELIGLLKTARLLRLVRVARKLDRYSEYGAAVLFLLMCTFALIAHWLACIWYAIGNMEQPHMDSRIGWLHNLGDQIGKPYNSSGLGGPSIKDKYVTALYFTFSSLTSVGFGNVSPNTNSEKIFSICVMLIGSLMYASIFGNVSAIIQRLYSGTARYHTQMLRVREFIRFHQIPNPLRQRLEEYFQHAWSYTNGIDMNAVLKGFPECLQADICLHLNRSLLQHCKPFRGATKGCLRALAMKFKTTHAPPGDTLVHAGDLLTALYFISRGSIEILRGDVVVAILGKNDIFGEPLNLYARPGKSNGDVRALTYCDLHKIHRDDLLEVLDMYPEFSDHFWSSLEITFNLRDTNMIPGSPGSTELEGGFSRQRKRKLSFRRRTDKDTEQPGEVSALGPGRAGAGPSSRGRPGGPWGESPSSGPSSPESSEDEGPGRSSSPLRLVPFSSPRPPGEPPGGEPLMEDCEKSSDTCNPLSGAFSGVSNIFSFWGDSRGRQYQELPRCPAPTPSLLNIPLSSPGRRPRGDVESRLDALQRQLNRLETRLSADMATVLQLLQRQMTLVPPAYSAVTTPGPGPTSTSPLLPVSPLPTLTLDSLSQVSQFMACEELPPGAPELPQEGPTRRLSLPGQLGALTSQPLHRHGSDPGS", "assay": "Potassium channel (hERG) affinity study", "format": "binding", "details": "100 μM, human recombinant cells (HEK-293)"}}, "note": "Read-outs that look alike come from different tables or passages of the source."}
{"smiles": "O=C(C(c1ccccc1)N1C(=O)CCC1=O)N1CCN(c2cccc(C(F)(F)F)c2)CC1", "note": "(racemic) [Compound 6, 1-(2-Oxo-1-phenyl-2-(4-(3-(trifluoromethyl)phenyl)piperazin-1-yl)ethyl)pyrrolidine-2,5-dione]", "values": [{"measurement": "ED50", "setting": "[1]; phase I (acute pain, 0-5 min), read-out: ED50 in the first phase of the formalin test", "value": 28.5, "unit": "mg/kg"}, {"measurement": "ED50", "setting": "[1]; phase II (inflammatory pain, 15-30 min), read-out: ED50 in the second phase of the formalin test", "value": 12.4, "unit": "mg/kg"}, {"measurement": "pain threshold, von Frey test", "setting": "[2]; 10 mg/kg i.p.", "value": "2.87 ± 0.12", "unit": "g"}, {"measurement": "pain threshold as % of the initial value, von Frey test", "setting": "[2]; 10 mg/kg i.p.", "value": 85.41, "unit": "%"}, {"measurement": "pain threshold, von Frey test", "setting": "[2]; 20 mg/kg i.p.", "value": "3.83 ± 0.13", "unit": "g"}, {"measurement": "pain threshold as % of the initial value, von Frey test", "setting": "[2]; 20 mg/kg i.p.", "value": 113.98, "unit": "%"}, {"measurement": "pain threshold, von Frey test", "setting": "[2]; 30 mg/kg i.p.", "value": "4.17 ± 0.17", "unit": "g"}, {"measurement": "pain threshold as % of the initial value, von Frey test", "setting": "[2]; 30 mg/kg i.p.", "value": 124.10, "unit": "%"}, {"measurement": "effect on thermal allodynia in the cold plate test", "setting": "[3]", "value": "significantly increased thermal allodynia sensitivity"}, {"measurement": "Inhibition of specific control binding, Na+ channel (site 2)", "setting": "[4]; 10 μM", "value": "33.4 (10) %"}, {"measurement": "Inhibition of specific control binding, Na+ channel (site 2)", "setting": "[4]; 100 μM", "value": "82.5 (100) %"}, {"measurement": "Inhibition of specific control binding, Ca2+ channel type L (dihydropyridine binding site)", "setting": "[5]; 10 μM", "value": "30.8 (10) %"}, {"measurement": "Inhibition of specific control binding, Ca2+ channel type L (dihydropyridine binding site)", "setting": "[5]; 100 μM", "value": "82.3 (100) %"}, {"measurement": "Inhibition of specific control binding, Potassium channel (hERG)", "setting": "[6]", "value": "25.8 (100) %"}]}
